Experimental data as given in patent US9688695B2, “Imidazothiadiazole and imidazopyrazine derivatives as protease activated receptor 4 (PAR4) inhibitors for treating platelet aggregation” (BRISTOL-MYERS SQUIBB COMPANY, priority 2012, dated 2017).

These compounds were tested against PAR4 (Homo sapiens (Human), UniProt Q96RI0) (assay: FLIPR assay in PAR4-expressing HEK293 cells (PAR4 antagonist activity, calcium mobilization)). Conditions: H-Ala-Phe(4-F)-Pro-Gly-Trp-Leu-Val-Lys-Asn-Gly-NH2-induced calcium mobilization.
Assay type: cell-based
Description: The FLIPR assay is an exemplary in vitro assay for measuring the activity of the PAR4 antagonists of the present invention. In this assay, intracellular calcium mobilization is induced in PAR4 expressing cells by a PAR4 agonist and calcium mobilization is monitored. See, e.g., Example A.
HEK293 cells stably expressing PAR4 were generated by a standard method of transfection of human […] cDNA expression vector or by RAGE technology from Athersys Inc. (Cleveland, Ohio) and selected based on PAR4 protein expression of mRNA expression. […] These cells express endogenous PAR1 and can elicit calcium signal upon stimulation with PAR1 agonist peptide.
Counter screens for agonist activity and PAR1 antagonist activity were also performed. Briefly, HEK293 EBNA PAR4 clone 20664.1J cells were plated 24 hrs. prior to experiment in 384 well, Poly-D-Lysine coated, black, clear bottom plates (Greiner Bio-One, Monroe, N.C.). Cells were plated at 20,000 cells/well in […] growth medium and incubated at 37° C. with 5% CO2 overnight. At time of assay, media was replaced with 40 μl 1× Hank's Buffered Saline Solution (HBSS) (with 10 mM HEPES) and 20 μl test compound also diluted in 1×HBSS buffer was added at various concentrations and 0.67% DMSO final concentration on the FDSS for agonist measurement. The cells were then incubated for 30 minutes at room temperature followed by addition of 20 μl of agonist peptide for antagonist measurement on the FDSS.
As indicated above, the FLIPR assay, an in vitro assay, measures the PAR4 antagonist activity of compounds tested as described in Example A. The PRP assay, an in vitro assay, measures the PAR4 antagonist assay of the compounds tested in the presence of plasma proteins and thrombin agonist as described in Example C.

Sequence of PAR4 (Q96RI0 18-385): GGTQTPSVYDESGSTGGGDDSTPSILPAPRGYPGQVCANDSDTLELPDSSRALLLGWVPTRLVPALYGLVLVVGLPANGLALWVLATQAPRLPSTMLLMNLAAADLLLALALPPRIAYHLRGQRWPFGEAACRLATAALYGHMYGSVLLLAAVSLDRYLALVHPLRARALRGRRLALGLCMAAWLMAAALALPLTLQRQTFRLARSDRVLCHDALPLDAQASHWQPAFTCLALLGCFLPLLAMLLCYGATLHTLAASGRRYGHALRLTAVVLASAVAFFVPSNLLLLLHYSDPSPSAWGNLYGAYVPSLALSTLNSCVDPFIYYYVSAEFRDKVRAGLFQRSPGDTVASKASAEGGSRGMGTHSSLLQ

In order of rising EC50:
1. COc1cc(OCc2csc(N3CCN(S(C)(=O)=O)CC3)n2)c2cc(-c3cn4nc(OC)sc4n3)oc2c1 [Example 100, 2-Methoxy-6-(6-methoxy-4-((2-(4-(methylsulfonyl)piperazin-1-yl)thiazol-4-yl)methoxy)benzofuran-2-yl)imidazo[2,1-b][1,3,4]thiadiazole]  0.25 nM
2. COc1cc(OCc2nc(N3CCOCC3)sc2C(C)(C)O)c2cc(-c3cn4nc(OC)sc4n3)oc2c1 [Example 91, 2-(4-(((6-Methoxy-2-(2-methoxyimidazo[2,1-b][1,3,4]thiadiazol-6-yl)benzofuran-4-yl)oxy)methyl)-2-morpholinothiazol-5-yl)propan-2-ol]  0.27 nM
3. CCc1sc(N2CCOCC2)nc1COc1cc(OC)cc2oc(-c3cn4nc(OC)sc4n3)cc12 [Example 105, 4-(5-Ethyl-4-(((6-methoxy-2-(2-methoxyimidazo[2,1-b][1,3,4]thiadiazol-6-yl)benzofuran-4-yl)oxy)methyl)thiazol-2-yl)morpholine]  0.32 nM
4. COCc1sc(N2CCOCC2)nc1COc1cc(OC)cc2oc(-c3cn4nc(OC)sc4n3)cc12 [Example 90, 4-(4-(((6-Methoxy-2-(2-methoxyimidazo[2,1-b][1,3,4]thiadiazol-6-yl)benzofuran-4-yl)oxy)methyl)-5-(methoxymethyl)thiazol-2-yl)morpholine]  0.33 nM
5. COc1cc(OCc2csc(N3CCN(S(=O)(=O)c4ccc(C#N)cc4)CC3)n2)c2cc(-c3cn4nc(OC)sc4n3)oc2c1 [Example 101, 4-((4-(4-(((6-Methoxy-2-(2-methoxyimidazo[2,1-b][1,3,4]thiadiazol-6-yl)benzofuran-4-yl)oxy)methyl)thiazol-2-yl)piperazin-1-yl)sulfonyl)benzonitrile]  0.36 nM
6. COc1cc(OCc2coc(N3CC4CCC(C3)O4)n2)c2cc(-c3cn4nc(OC)sc4n3)oc2c1 [Example 98, 3-(4-(((6-Methoxy-2-(2-methoxyimidazo[2,1-b][1,3,4]thiadiazol-6-yl)benzofuran-4-yl)oxy)methyl)oxazol-2-yl)-8-oxa-3-azabicyclo[3.2.1]octane]  0.37 nM
7. COc1cc(OCc2nc(N3CCOCC3)oc2C)c2cc(-c3cn4nc(OC)sc4n3)oc2c1 [Example 97, 4-(4-(((6-Methoxy-2-(2-methoxyimidazo[2,1-b][1,3,4]thiadiazol-6-yl)benzofuran-4-yl)oxy)methyl)-5-methyloxazol-2-yl)morpholine]  0.63 nM
8. COc1cc(OCc2csc(N3CC4(COC4)C3)n2)c2cc(-c3cn4nc(OC)sc4n3)oc2c1 [Example 104, 6-(4-(((6-Methoxy-2-(2-methoxyimidazo[2,1-b][1,3,4]thiadiazol-6-yl)benzofuran-4-yl)oxy)methyl)thiazol-2-yl)-2-oxa-6-azaspiro[3.3]heptane]  0.68 nM
9. COc1cc(OCc2nc(N3CCOCC3)sc2CO)c2cc(-c3cn4nc(OC)sc4n3)oc2c1 [Example 89, (4-(((6-Methoxy-2-(2-methoxyimidazo[2,1-b][1,3,4]thiadiazol-6-yl)benzofuran-4-yl)oxy)methyl)-2-morpholinothiazol-5-yl)methanol]  0.69 nM
10. COc1cc(OCc2nc(C3CCOCC3)sc2C)c2cc(-c3cn4nc(OC)sc4n3)oc2c1 [Example 95, 2-Methoxy-6-(6-methoxy-4-((5-methyl-2-(tetrahydro-2H-pyran-4-yl)thiazol-4-yl)methoxy)benzofuran-2-yl)imidazo[2,1-b][1,3,4]thiadiazole]  0.83 nM
11. COc1cc(OCc2csc(N3CCN(C(=O)OC(C)(C)C)CC3)n2)c2cc(-c3cn4nc(OC)sc4n3)oc2c1 [Example 99, tert-Butyl 4-(4-(((6-methoxy-2-(2-methoxyimidazo[2,1-b][1,3,4]thiadiazol-6-yl)benzofuran-4-yl)oxy)methyl)thiazol-2-yl)piperazine-1-carboxylate]  0.84 nM
12. COc1cc(OCc2csc(N3CCN(S(=O)(=O)C(C)C)CC3)n2)c2cc(-c3cn4nc(OC)sc4n3)oc2c1 [Example 102, 6-(4-((2-(4-(Isopropylsulfonyl)piperazin-1-yl)thiazol-4-yl)methoxy)-6-methoxybenzofuran-2-yl)-2-methoxyimidazo[2,1-b][1,3,4]thiadiazole]  2.3 nM
